# Results taken from patent publication US20250223281A1, “ANTIDIABETIC COMPOUNDS AND COMPOSITIONS” (REZUBIO PHARMACEUTICALS CO., LTD, priority 2022, published 2025).
# Molecular target: T1, GPR40 (Homo sapiens, UniProt O14842)
# T1 construct: expressed in transfected cells; host or cells: HEK293 cells stably expressing GPR40 (Hygromycin selection)
# Assay: IP1 accumulation assay in HEK293 cells stably expressing GPR40
# Type: cell-based
# In short: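 HEK293 cells stably expressing human GPR40 were incubated with compounds (10-point, 3-fold dilution series) for 2 h at 37 °C, then IP1 was detected by HTRF (665/615 nm ratio). Effect was normalised to DMSO blank and AMG-1638 as 100%, and EC50 was derived from dose curves.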
# [1] = IP1 accumulation, HEK293 cells stably expressing GPR40, 2 hours at 37° C., % effect relative to AMG-1638, table of Biological Example 1
# [2] = Table A-8 (additional examples), obtained by methods of Biological Example 1
# [3] = Tables A-1a to A-7b (structure-property relationship), obtained by methods of Biological Example 1
# T1 sequence (O14842 whole entry): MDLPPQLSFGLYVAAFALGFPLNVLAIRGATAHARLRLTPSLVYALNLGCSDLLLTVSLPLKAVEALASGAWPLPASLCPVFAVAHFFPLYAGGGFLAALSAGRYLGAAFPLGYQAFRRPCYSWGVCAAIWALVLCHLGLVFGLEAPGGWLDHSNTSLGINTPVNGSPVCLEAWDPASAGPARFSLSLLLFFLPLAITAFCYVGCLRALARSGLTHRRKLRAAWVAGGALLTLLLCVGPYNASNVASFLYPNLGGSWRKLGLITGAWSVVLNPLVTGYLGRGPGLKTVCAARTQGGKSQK
SMILES,EC50 [1] [nM],EC50 [2] [nM],EC50 [3] [nM]
C[C@H](C(=O)O)[C@H](c1ccc2c(c1)O[C@@H](C1CCN(Cc3cc(-n4cc(COCCOCCOCCOCCOCC(=O)NCCN(CCC(=O)NCCN)CCC(=O)NCCN)nn4)ccc3OC(F)(F)F)CC1)CC2)C1CC1 [Example 173],> 10000,> 10000,
C[C@H](C(=O)O)[C@H](c1ccc2c(c1)O[C@@H](C1CCN(Cc3cc(-n4cc(COCCOCCOCC(=O)NCC[N+](C)(CCC(=O)NCCN)CCC(=O)NCCN)nn4)ccc3OC(F)(F)F)CC1)CC2)C1CC1 [Example 174],> 10000,> 10000,
C[C@H](C(=O)O)[C@H](c1ccc2c(c1)O[C@@H](C1CCN(Cc3cc(-n4cc(COCCOCCOCCOCC(=O)NCC[N+](C)(CCC(=O)NCCN)CCC(=O)NCCN)nn4)ccc3OC(F)(F)F)CC1)CC2)C1CC1 [Example 175],> 10000,> 10000,
C[C@H](C(=O)O)[C@H](c1ccc2c(c1)O[C@@H](C1CCN(Cc3cc(-n4cc(COCCOCCOCCOCCOCC(=O)NCC[N+](C)(CCC(=O)NCCN)CCC(=O)NCCN)nn4)ccc3OC(F)(F)F)CC1)CC2)C1CC1 [Example 176],> 10000,> 10000,
COc1ccc(C(=O)N(CC(C)(C)CCn2cc(COCCOCCOCCOCCOCC(=O)NCC[N+](C)(CCC(=O)NCCN)CCC(=O)NCCN)nn2)c2cccc(C)n2)c(N2CCC(c3cc4ccc([C@@H](CC(=O)O)C5CC5)cc4o3)CC2)c1 [Example 178],2030,,
COc1ccc(F)c(-n2nnc(COc3cccc([C@@H](CC(=O)O)C4CC4)c3)c2CC(C)(C)Cn2cc(CCCCCCCCCCCCCCCC(=O)NCCN(CCC(=O)NCCN)CCC(=O)NCCN)nn2)c1 [Example 179],50,,
COc1ccc(F)c(-n2nnc(COc3cccc([C@@H](CC(=O)O)C4CC4)c3)c2CC(C)(C)Cn2cc(COCCOCCOCCOCCOCC(=O)NCCN(CCC(=O)NCCN)CCC(=O)NCCN)nn2)c1 [Example 180],> 10000,,
COc1ccc(F)c(-n2nnc(COc3cccc([C@@H](CC(=O)O)C4CC4)c3)c2CC(C)(C)Cn2cc(COCCOCCOCCOCCOCC(=O)NCC[N+](C)(CCC(=O)NCCN)CCC(=O)NCCN)nn2)c1 [Example 182],> 10000,,
COc1ccc(F)c(-c2ccc(COc3cccc([C@@H](CC(=O)O)C4CC4)c3)cc2CC(C)(C)Cn2cc(CCCCCCCCCC(=O)NCCN(CCC(=O)NCCN)CCC(=O)NCCN)nn2)c1 [Example 191],204,209,204
COc1ccc(F)c(-c2ccc(COc3cccc([C@@H](CC(=O)O)C4CC4)c3)cc2CC(C)(C)Cn2cc(CCCCCCCCCC(=O)NCC[N+](C)(CCC(=O)NCCN)CCC(=O)NCCN)nn2)c1 [Example 192],250,251,250
C[C@H](C(=O)O)[C@H](c1ccc2c(c1)O[C@@H](C1CCN(Cc3cc(-n4cc(CCCCCCCCCC(=O)NCCN(CCC(=O)NCCN)CCC(=O)NCCN)nn4)ccc3OC(F)(F)F)CC1)CC2)C1CC1 [Example 193],413,413,413
C[C@H](C(=O)O)[C@H](c1ccc2c(c1)O[C@@H](C1CCN(Cc3cc(-n4cc(CCCCCCCCCC(=O)NCC[N+](C)(CCC(=O)NCCN)CCC(=O)NCCN)nn4)ccc3OC(F)(F)F)CC1)CC2)C1CC1 [Example 194],114,94,114
COc1ccc(C(=O)N(CC(C)(C)CCn2cc(CCCCC(=O)NCCN(CCC(=O)NCCN)CCC(=O)NCCN)nn2)c2cccc(C)n2)c(N2CCC(COc3cc([C@@H](CC(=O)O)C4CC4)ccn3)CC2)c1 [Example 195],> 10000,,
COc1ccc(C(=O)N(CC(C)(C)CCn2cc(CCCCCCC(=O)NCCN(CCC(=O)NCCN)CCC(=O)NCCN)nn2)c2cccc(C)n2)c(N2CCC(COc3cc([C@@H](CC(=O)O)C4CC4)ccn3)CC2)c1 [Example 196],9870,,9870
COc1ccc(C(=O)N(CC(C)(C)CCn2cc(CCCCCCCCCC(=O)NCCN(CCC(=O)NCCN)CCC(=O)NCCN)nn2)c2cccc(C)n2)c(N2CCC(COc3cc([C@@H](CC(=O)O)C4CC4)ccn3)CC2)c1 [Example 197],84.3,84,84.3
COc1ccc(C(=O)N(CC(C)(C)CCn2cc(CCCCC(=O)NCC[N+](C)(CCC(=O)NCCN)CCC(=O)NCCN)nn2)c2cccc(C)n2)c(N2CCC(COc3cc([C@@H](CC(=O)O)C4CC4)ccn3)CC2)c1 [Example 199],> 10000,,> 10000
COc1ccc(C(=O)N(CC(C)(C)CCn2cc(CCCCCCC(=O)NCC[N+](C)(CCC(=O)NCCN)CCC(=O)NCCN)nn2)c2cccc(C)n2)c(N2CCC(COc3cc([C@@H](CC(=O)O)C4CC4)ccn3)CC2)c1 [Example 200],> 10000,,> 10000
COc1ccc(C(=O)N(CC(C)(C)CCn2cc(CCCCCCCCCC(=O)NCC[N+](C)(CCC(=O)NCCN)CCC(=O)NCCN)nn2)c2cccc(C)n2)c(N2CCC(COc3cc([C@@H](CC(=O)O)C4CC4)ccn3)CC2)c1 [Example 201],44.6,45,45

# Now those with a lower EC50 [1], led by results:
EC50 [1] [nM],EC50 [2] [nM],EC50 [3] [nM],SMILES
0.08,,,COc1ccc(C(=O)N(CC(C)(C)CCn2cc(CCCCCCCCCCCCCCC(=O)NCC[N+](C)(CCC(=O)NCCN)CCC(=O)NCCN)nn2)c2cccc(C)n2)c(N2CCC(c3cc4ccc([C@@H](CC(=O)O)C5CC5)cc4o3)CC2)c1 [Example 177]
16.1,,,COc1ccc(F)c(-n2nnc(COc3cccc([C@@H](CC(=O)O)C4CC4)c3)c2CC(C)(C)Cn2cc(CCCCCCCCCCCCCCCC(=O)NCC[N+](C)(CCC(=O)NCCN)CCC(=O)NCCN)nn2)c1 [Example 181]
0.05,0.05,0.05,C[C@H](C(=O)O)[C@H](c1ccc2c(c1)O[C@@H](C1CCN(Cc3cc(-n4cc(CCCCCCCCCCCCCCCC(=O)NCCN(CCC(=O)NCCN)CCC(=O)NCCN)nn4)ccc3OC(F)(F)F)CC1)CC2)C1CC1 [Example 185]
0.03,0.05,0.05,C[C@H](C(=O)O)[C@H](c1ccc2c(c1)O[C@@H](C1CCN(Cc3cc(-n4cc(CCCCCCCCCCCCCCCC(=O)NCC[N+](C)(CCC(=O)NCCN)CCC(=O)NCCN)nn4)ccc3OC(F)(F)F)CC1)CC2)C1CC1 [Example 186]
1.34,1.34,1.34,COc1ccc(F)c(-c2ccc(COc3cccc([C@@H](CC(=O)O)C4CC4)c3)cc2CC(C)(C)Cn2cc(CCCCCCCCCCCCCCCC(=O)NCCN(CCC(=O)NCCN)CCC(=O)NCCN)nn2)c1 [Example 187]
1.53,1.53,1.53,COc1ccc(F)c(-c2ccc(COc3cccc([C@@H](CC(=O)O)C4CC4)c3)cc2CC(C)(C)Cn2cc(CCCCCCCCCCCCCCCC(=O)NCC[N+](C)(CCC(=O)NCCN)CCC(=O)NCCN)nn2)c1 [Example 188]
0.05,,0.05,COc1ccc(C(=O)N(CC(C)(C)CCCCCCn2cc(CCCCCCCCCCCCCC(=O)NCCN(CCC(=O)NCCN)CCC(=O)NCCN)nn2)c2cccc(C)n2)c(N2CCC(COc3cc([C@@H](CC(=O)O)C4CC4)ccn3)CC2)c1 [Example 189]
0.05,,0.05,COc1ccc(C(=O)N(CC(C)(C)CCCCCCn2cc(CCCCCCCCCCCCCC(=O)NCC[N+](C)(CCC(=O)NCCN)CCC(=O)NCCN)nn2)c2cccc(C)n2)c(N2CCC(COc3cc([C@@H](CC(=O)O)C4CC4)ccn3)CC2)c1 [Example 190]
0.17,0.17,0.17,COc1ccc(C(=O)N(CC(C)(C)CCn2cc(CCCCCCCCCCCCCCCC(=O)NCCN(CCC(=O)NCCN)CCC(=O)NCCN)nn2)c2cccc(C)n2)c(N2CCC(COc3cc([C@@H](CC(=O)O)C4CC4)ccn3)CC2)c1 [Example 198]
0.16,0.16,0.16,COc1ccc(C(=O)N(CC(C)(C)CCn2cc(CCCCCCCCCCCCCCCC(=O)NCC[N+](C)(CCC(=O)NCCN)CCC(=O)NCCN)nn2)c2cccc(C)n2)c(N2CCC(COc3cc([C@@H](CC(=O)O)C4CC4)ccn3)CC2)c1 [Example 202]
11.9,,,COc1ccc(C(=O)N(CC(C)(C)CCCCCCn2cc(CCCCCCCCC(=O)NCCCN(CC(=O)O)CC(=O)O)nn2)c2cccc(C)n2)c(N2CCC(COc3cc([C@@H](CC(=O)O)C4CC4)ccn3)CC2)c1 [Example 203]
7,,,COc1ccc(C(=O)N(CC(C)(C)CCCCCCn2cc(CCCCCCCCCC(=O)NCCCN(CC(=O)O)CC(=O)O)nn2)c2cccc(C)n2)c(N2CCC(COc3cc([C@@H](CC(=O)O)C4CC4)ccn3)CC2)c1 [Example 204]
0.93,,,COc1ccc(C(=O)N(CC(C)(C)CCCCCCn2cc(CCCCCCCCCCCC(=O)NCCCN(CC(=O)O)CC(=O)O)nn2)c2cccc(C)n2)c(N2CCC(COc3cc([C@@H](CC(=O)O)C4CC4)ccn3)CC2)c1 [Example 205]
0.59,,,COc1ccc(C(=O)N(CC(C)(C)CCCCCCn2cc(CCCCCCCCCCCCCC(=O)NCCCN(CC(=O)O)CC(=O)O)nn2)c2cccc(C)n2)c(N2CCC(COc3cc([C@@H](CC(=O)O)C4CC4)ccn3)CC2)c1 [Example 206]
20.5,,,COc1ccc(C(=O)N(CC(C)(C)CCCCCCn2cc(CCCCCCCCC(=O)NCCC[N+](C)(CC(=O)[O-])CC(=O)O)nn2)c2cccc(C)n2)c(N2CCC(COc3cc([C@@H](CC(=O)O)C4CC4)ccn3)CC2)c1 (some centres unmarked) [Example 207]
5.15,,,COc1ccc(C(=O)N(CC(C)(C)CCCCCCn2cc(CCCCCCCCCC(=O)NCCC[N+](C)(CC(=O)[O-])CC(=O)O)nn2)c2cccc(C)n2)c(N2CCC(COc3cc([C@@H](CC(=O)O)C4CC4)ccn3)CC2)c1 (some centres unmarked) [Example 208]
1,,,COc1ccc(C(=O)N(CC(C)(C)CCCCCCn2cc(CCCCCCCCCCCC(=O)NCCC[N+](C)(CC(=O)[O-])CC(=O)O)nn2)c2cccc(C)n2)c(N2CCC(COc3cc([C@@H](CC(=O)O)C4CC4)ccn3)CC2)c1 (some centres unmarked) [Example 209]
